# Test results taken from EP3050567B1, “COMPOUND FOR ACTIVATING AMPK AND USES THEREOF” (Energenesis Biomedical Co., Ltd., priority 2013, dated 2015).
# Key:
# AMPK = AMPK activation assay (phospho-AMPK Thr172 western blot) in HUVEC cells; format: cell-based, human; conditions: 30 min
# Description: Effects of adenine on AMPK activation were evaluated based on the phosphorylation of AMPK protein upon adenine treatment. Mouse muscle cell C2C12, mouse fibroblast 3T3, human liver carcinoma cell Hep G2, human breast adenocarcinoma cell line MCF7 and human colon adenocarcinoma grade II cell line HT29, human umbilical vein endothelial cell HUVEC, Human acute monocytic leukemiacell THP1, human macrophage cell U937, murine microglia cell BV-2, and mouse neuroblastoma cell Neuro2A and dermal papilla cell were cultured in high-glucose Dulbecco's modified Eagle's medium (DMEM) containing 10% fetal bovine serum (FBS), 4 mM L-glutamine, 2 mM sodium pyruvate and 1% penicillin/streptomycin (Invitrogen GibcoBRL, Carlsbad, Calif., USA) at 37°C, under 5% CO2. Cells were plated at 3 × 10^5 per well in 6-well plates. Twenty-four hours after plating, adenine was added to the culture media as indicated. After 30 min cells were lysed and subject to western blot analysis. Equal amount of protein from each sample was separated by SDS-PAGE and then electroblotted on to PVDF membranes. Membranes were blocked with 3% BSA in PBS for 60 min and incubated with an anti-phospho-AMPK (Thr172) antibody (1:2,000, Cell signaling) or an anti-AMPK antibody (1:2,000, Cell signaling) at 4°C for 16 h followed by the corresponding secondary antibody for 1 h at room temperature (RT). Immunoreactive bands were detected by enhanced chemiluminescence and recorded using Kodak film. The detected signals were scanned and then quantified using TotalLab Quant software (TotalLab).
# [1] = system: Human umbilical vein endothelial cells (HUVECs); assay: ROS production (H2DCF-DA) under high glucose; format: cell-based; conditions: 30 mM glucose, 24 h
# Description: Human umbilical vein endothelial cells (HUVECs) were cultured in Dulbecco's modified Eagle's medium (DMEM) containing 10% fetal bovine serum (FBS), 4 mM L-glutamine, 2 mM sodium pyruvate and 1% penicillin/streptomycin (Invitrogen GibcoBRL, Carlsbad, Calif., USA) at 37°C under 5% CO2. Cells were plated at 2×10^4 per well in black 96-well. Twenty-four hours after plating, medium was changed to fresh DMEM containing either 5.6 or 30 mM glucose and treated with indicated concentration of adenine. Twenty-four hours after treatment, the intracellular ROS was detected using H2DCF-DA. Cells were washed once with PBS and then incubated with 100 µM DCF at 37°C for 30 min. Then the fluorescence of DCF was measured using a Fluorescence Microplate Reader System at 485-nm excitation and 530-nm emission wavelengths.
# 3T3 cells = assay: Fibroblast proliferation assay (trypan blue cell counting); format: cell-based, mouse; conditions: 72 h, mean±SEM of three experiments
# Description: […] fibro blast cell line 3T3 were cultured in high-glucose Dulbecco's modified Eagle's medium (DMEM) containing 10% fetal bovine serum (FBS), 4 mM L-glutamine, 2 mM sodium pyruvate and 1% penicillin/streptomycin (Invitrogen GibcoBRL, Carlsbad, Calif., USA) at 37°C under 5% CO2. For cell proliferation assay, 3T3 cells were plated at 1 × 10^5 per well (6-well plate). Twenty-four hours after plating, cells were treated with indicated concentration of adenine for 72 h and the number of viable cells was counted. Cells were detached using trypsin-EDTA solution and stained with trypan blue. The living cells were counted using hemocytometer.
# Aβ infusion mice = assay: Aβ-induced Alzheimer's disease model mice, Morris water maze assay; format: in vivo, C57BL/6J mice; conditions: AD mice, daily IP adenine 0.01, 0.1, 5 or 30 mg/kg for 4 weeks, vs control AD mice
# Description: Aβ25-35 was purchased from Sigma-Aldrich (St. Louis, Missouri). The peptides were dissolved in distilled saline and aggregated by incubation at 37°C for 7 days before injection. C57BL/6J mice were maintained at 22° C under a 12-h light/dark cycle. Adult mice were anesthetized by ketamine (500 mg/kg) and xylazine (100 mg/kg) and placed in a stereotaxic frame. Five nmol of the aggregated Aβ25-35 were injected into the lateral ventricle using a 10 µl Hamilton syringe. The target anterior-posterior (AP), medial-lateral (ML) and dorsoventral coordinates were -0.5 mm, ±1 mm and -2.5 mm relative to the bregma. To evaluate the effect of adenine on neurodegenerative disease, Aβ infusion mice were daily intraperitoneally injected with 0.01, 0.1, 5 or 30 mg/kg bodyweight of adenine or vehicle for 4 weeks. The cognitive functions of these mice were analyzed by using Morris water maze assay after 4 weeks injection. The water maze was performed in a circular pool filled with water and a platform was submerged below the water's surface in the target quadrant for hidden platform test. During the 5-day hidden platform test, mice were randomly placed into starting points of the pool in each daily trial (6 trials per day). […] Mice were allowed to swim in the maze for 60 s and recorded by a video camera. The latency to find the platform and swim paths was analyzed by software.
# Hep G2 cells = assay: Tumor growth assay, Hep G2 implanted subcutaneously; format: in vivo; conditions: Hep G2 implanted NOD-SCID mice, daily IP adenine 5, 20 or 50 mg/kg, 14 days post implantation, vs control mice
# Description: Human liver hepatocellular carcinoma cell line Hep G2 were cultured in high-glucose Dulbecco's modified Eagle's medium (DMEM) containing 10% fetal bovine serum (FBS), 4 mM L-glutamine, 2 mM sodium pyruvate and 1% penicillin/streptomycin (Invitrogen GibcoBRL, Carlsbad, Calif., USA) at 37°C under 5% CO2. For tumor implantation, 5 × 10^6 Hep G2 cells were injected subcutaneously into 8-week-old male nonobese diabetic-severe combined immunodeficiency (NOD-SCID) mice. After implantation, the mice were daily intraperitoneally injected with 5, 20 or 50 mg/kg body weight of adenine and the tumor size was monitored every 3 days.
# muscle cell C2C12 = assay: Glucose uptake in vitro (fluorescent glucose analog 2-NBDG); format: cell-based, Mouse; conditions: C2C12 cells, 30 min, mean±SEM of three experiments
# Description: Effects of adenine on glucose uptake were analyzed by measuring the uptake of fluorescent glucose analog (2-NBDG, Molecular Probes) in muscle cell C2C12. C2C12 cells were treated with indicated concentrations of adenine for 30 min at 37°C, and then incubated with 500 µM of fluorescent glucose analog. After 5 min incubation at room temperature, cells were washed three times with Kreb-Hepes buffered solution and fixed in 70% alcohol. The fluorescence of glucose analog in cells was measured using a Fluorescence Microplate Reader System.
smiles,measurement,setting,value
"Nc1ncnc2nc[nH]c12 [Adenine, adenine]",AMPK activation (fold to control),AMPK; adenine 1 microM,1.2 fold to control
same,AMPK activation (fold to control),AMPK; adenine 10 microM,1.9 fold to control
same,AMPK activation (fold to control),AMPK; adenine 100 microM,3.2 fold to control
same,AMPK activation (fold to control),AMPK; adenine 200 microM,3.9 fold to control
same,AMPK activation (fold to control),AMPK; adenine 600 microM,4.1 fold to control
same,ROS production (% of 5.6 mM glucose),[1]; adenine 10 microM,211 ± 4.3 % of 5.6 mM glucose
same,ROS production (% of 5.6 mM glucose),[1]; adenine 100 microM,116 ± 1.7 % of 5.6 mM glucose
same,ROS production (% of 5.6 mM glucose),[1]; adenine 200 microM,38.1 ± 2.9 % of 5.6 mM glucose
same,ROS production (% of 5.6 mM glucose),[1]; adenine 600 microM,21.7 ± 3.1 % of 5.6 mM glucose
same,ROS production (% of 5.6 mM glucose),[1]; adenine 1200 microM,22.4 ± 2.5 % of 5.6 mM glucose
same,Cellnumber (% to control),3T3 cells; adenine 10 microM,91±2.7 % to control
same,Cellnumber (% to control),3T3 cells; adenine 50 microM,73±8.1 % to control
same,Cellnumber (% to control),3T3 cells; adenine 100 microM,64±5.3 % to control
same,Cellnumber (% to control),3T3 cells; adenine 200 microM,48±2.8 % to control
same,Cellnumber (% to control),3T3 cells; adenine 500 microM,33±6.4 % to control
same,Cellnumber (% to control),3T3 cells; adenine 1000 microM,27±11.3 % to control
same,time to find platform (hidden platform test),Aβ infusion mice; dose-dependent,significantly shorter time
same,percentage time in target quadrant (probe assay),Aβ infusion mice,higher percentage time
same,growth of tumor,Hep G2 cells,significantly retarded
same,Glucose uptake (% to control),muscle cell C2C12; adenine 1 microM,117±8.1 % to control
same,Glucose uptake (% to control),muscle cell C2C12; adenine 10 microM,261±13.4 % to control
same,Glucose uptake (% to control),muscle cell C2C12; adenine 100 microM,315±11.9 % to control
same,Glucose uptake (% to control),muscle cell C2C12; adenine 600 microM,338±16.5 % to control
